Structures can show the parent of a compound that is named as a salt. Where two headings read alike, the source gives them in different places.
Assays:
[1] = Stability studies of sitagliptin salts (10 months storage; HPLC, XRD, visual inspection); assay type: physicochemical; details: for Purity (HPLC) 10 months later / Aspect/Colour 10 months later / XRD analysis 10 months later: stored 10 months at room temperature, normal pressure, ambient atmosphere; for Aspect/Colour 10 months later: visual inspection; for XRD analysis 10 months later: initial XRD Form I; for Stability in terms of polymorphic form: after ten months of storage
Description: The XRD diffractograms were obtained using a RX SIEMENS D5000 diffractometer with a vertical goniometer, a copper anodic tube, and radiation CuKα, λ=1.54056.
Mobile phase A was a mixture of methanol and 5 mM dibasic sodium phosphate buffer, pH=7.0 (70:30, v/v). The buffer was prepared by dissolving 0.217 g of dibasic sodium phosphate in 300 mL of water and adjusting the pH of the solution to 7.0±0.1 with phosphoric acid, and filtered through a 0.22 μm nylon membrane under vacuum. Mobile phase B was methanol.
The following gradient was used: […]
The samples were analyzed after 10 months by HPLC, XRD, and visual inspection.

[2] = room temperature
[3] = listed as sitagliptin ethanedisulfonate Form I
[4] = listed as sitagliptin galactarate Form I

With sitagliptin acetate the “Purity (HPLC) 10 months later” value [1] was 98.90% and the “Aspect/Colour 10 months later” value [1] was “off-white”.
In the case of N[C@@H](CC(=O)N1CCn2c(nnc2C(F)(F)F)C1)Cc1cc(F)c(F)cc1F.N[C@@H](CC(=O)O)C(=O)O [L-aspartate, sitagliptin L-aspartate], the “Purity (HPLC) 10 months later” value [1] is reported as 97.14% and the “Aspect/Colour 10 months later” value [1] is reported as “white”.
In the case of N[C@@H](CC(=O)N1CCn2c(nnc2C(F)(F)F)C1)Cc1cc(F)c(F)cc1F [Hydrobromide, sitagliptin hydrobromide], the “Purity (HPLC) 10 months later” value [1] is reported as 98.92%, the “XRD analysis 10 months later” value [1] is reported as “Form I” and the “Aspect/Colour 10 months later” value [1] is reported as “off-white”.
In the case of N[C@@H](CC(=O)N1CCn2c(nnc2C(F)(F)F)C1)Cc1cc(F)c(F)cc1F.O=S(=O)(O)CCS(=O)(=O)O [Ethane-disulfonate, sitagliptin ethanedisulfonate], the “Descriptive term (solubility in water)” value [2] is reported as “Freely soluble”, the “Descriptive term (solubility in water)” value [2, 3] is reported as “freely soluble” and the “Stability in terms of polymorphic form” value [1] is reported as “highly stable”. For the same compound, the “Purity (HPLC) 10 months later” value [1] was 99.83%, the “XRD analysis 10 months later” value [1] was “Form I” and the “Purity (HPLC) 10 months later” value [1, 3] was “higher than 99.8%”. For the same compound, the “Aspect/Colour 10 months later” value [1] was “off-white”.
For N#CS.N[C@@H](CC(=O)N1CCn2c(nnc2C(F)(F)F)C1)Cc1cc(F)c(F)cc1F [Thiocyanate, sitagliptin thiocyanate], the “Stability in terms of polymorphic form” value [1] was “highly stable”, the “Purity (HPLC) 10 months later” value [1] was 99.22% and the “XRD analysis 10 months later” value [1] was “Form I”. For the same compound, the “Purity (HPLC) 10 months later” value ([1]; listed as sitagliptin thiocyanate Form I) was “higher than 99.2%” and the “Aspect/Colour 10 months later” value [1] was “light pink”.
In the case of N[C@@H](CC(=O)N1CCn2c(nnc2C(F)(F)F)C1)Cc1cc(F)c(F)cc1F.O=C(O)[C@@H](O)[C@H](O)[C@H](O)[C@@H](O)C(=O)O [Galactarate, sitagliptin galactarate], the “Descriptive term (solubility in water)” value [2] is reported as “Sparingly soluble”, the “Descriptive term (solubility in water)” value [2, 4] is reported as “sparingly soluble” and the “Stability in terms of polymorphic form” value [1] is reported as “highly stable”. The “Purity (HPLC) 10 months later” value [1] was 99.15%, the “XRD analysis 10 months later” value [1] was “Form I” and the “Purity (HPLC) 10 months later” value [1, 4] was “higher than 99.1%”. For the same compound, the “Aspect/Colour 10 months later” value [1] was “off-white”.
For NC(CC(=O)N1CCn2c(nnc2C(F)(F)F)C1)Cc1cc(F)c(F)cc1F.O=C(O)C(O)C(O)C(O)C(O)CO [D-Gluconate, sitagliptin D-gluconate], the “Purity (HPLC) 10 months later” value [1] was 96.29% and the “Aspect/Colour 10 months later” value [1] was “beige”.
With sitagliptin (S)-pyroglutamate the “Purity (HPLC) 10 months later” value [1] was 98.64% and the “Aspect/Colour 10 months later” value [1] was “off-white”.
With sitagliptin succinate the “Purity (HPLC) 10 months later” value [1] was 98.88% and the “Aspect/Colour 10 months later” value [1] was “off-white”.
In the case of sitagliptin hemi-L-malate, the “Purity (HPLC) 10 months later” value [1] is reported as 98.91%.
For sitagliptin oxalate, the “Purity (HPLC) 10 months later” value [1] was 95.95%, the “XRD analysis 10 months later” value [1] was “Form I” and the “Aspect/Colour 10 months later” value [1] was “white”.

Reference: patent US8389724B2, “Crystalline salt forms of a 5,6,7,8-tetrahydro-1,2,4-triazolo[4,3-a]pyrazine derivative” (Corporacion Medichem, S.L., priority 2008, dated 2013)
